9 molecules from ChEMBL document CHEMBL5131490, “5-Substituted 3, 3', 4', 7-tetramethoxyflavonoids - A novel class of potent DNA triplex specific binding ligands” (Bioorg Med Chem Lett, 2022) can be followed below.

The nature of assay [1]: Stabilization of [poly(dA).2poly(dT) triplex DNA (unknown origin) assessed as melting temperature at 20 uM by Thermal denaturation assay.
The nature of assay [2]: Binding affinity to triplex DNA1 containing 15 nucleotide-long triplex-forming region (unknown origin) at 100 uM by ITC. (In general: In ITC the heat of successive injections is recorded.)
Assay [3] can be described thus: Binding affinity to triplex DNA1 containing 15 nucleotide-long triplex-forming region (unknown origin) assessed as change in melting temperature at 10 uM by UV based assay.
Assay [4] in a line: Stabilization of [poly(dA).2poly(dT) triplex DNA (unknown origin) assessed as melting temperature at 10 uM by DSC assay (reference value: 36.8 degC).
Assay [5] in a line: Stabilization of [poly(dA).2poly(dT) triplex DNA (unknown origin) assessed as deltaH level temperature at 10 uM by DSC assay (reference value: 5.19 KJ/mol). On the technique in general: In DSC, transitions show as peaks or steps in heat flow.
The nature of assay [6]: Stabilization of [poly(dA).2poly(dT) triplex DNA (unknown origin) assessed as deltaS level temperature at 10 uM by DSC assay (reference value: 0.0167 mol.K).
The nature of assay [7]: Stabilization of [poly(dA).poly(dT)] triplex DNA (unknown origin) assessed as change in melting temperature at 10 uM by UV based assay.
Assay [8] is described as follows: Stabilization of [poly(dA).2poly(dT) triplex DNA (unknown origin) assessed as effect on CD spectrum up to 25 uM by CD spectroscopy.
A short description of assay [9]: Stabilization of [poly(dA).2poly(dT) triplex DNA (unknown origin) assessed as increase in melting temperature at 1 uM by Thermal denaturation assay.

Active and inactive are the calls of the source. No cut-off for these calls is given here.

As for `NC[C@@H]1O[C@H](O[C@H]2[C@@H](O)[C@H](O[C@@H]3[C@@H](O)[C@H](N)C[C@H](N)[C@H]3O[C@H]3O[C@H](CN)[C@@H](O)[C@H](O)[C@H]3N)O[C@@H]2CO)[C@H](N)[C@@H](O)[C@@H]1O`, the Tm in assay [1] was 24 °C. This molecule registered a Ka in assay [2] of 160000 M⁻¹.

The term ΔTm denotes the shift of the melting midpoint relative to a reference. As for `COc1cc(OCCCCN2CCCC2)c2c(=O)c(OC)c(-c3ccc(OC)c(OC)c3)oc2c1`, the ΔTm in assay [3] is 12.6 °C; in [7], 17.4 °C. The Tm in [4] was 48.9 °C. The deltaH in [5] is 2.08 kcal/mol. For the same molecule, in assay [6], the deltaS is 0.0271 KJ/(mol.K). In [2], the Ka came to 310000 M⁻¹. Further, in assay [8], the result was Active.

Turning to `CCCCCN(CCCCC)CCCCOc1cc(OC)cc2oc(-c3ccc(OC)c(OC)c3)c(OC)c(=O)c12`, the shift in melting temperature (ΔTm) in [3] was determined as 5.6 °C; in assay [7], 2.4 °C.

Turning to `CCCCN(CCCC)CCCCOc1cc(OC)cc2oc(-c3ccc(OC)c(OC)c3)c(OC)c(=O)c12`, the ΔTm in assay [3] is 5.6 °C; in assay [7], 3.3 °C.

Regarding `COc1cc(OCCCCN2CCCCC2)c2c(=O)c(OC)c(-c3ccc(OC)c(OC)c3)oc2c1`, the shift in melting temperature (ΔTm) was found to be 13.6 °C in [3], 6 °C in assay [9] and 16.4 °C in assay [7]. The Tm in [1] turned out to be 24 °C.

For `CCCN(CCC)CCCCOc1cc(OC)cc2oc(-c3ccc(OC)c(OC)c3)c(OC)c(=O)c12`, the shift in melting temperature (ΔTm) came to 11.2 °C in [3] and 10.3 °C in assay [7].

For the molecule `COc1cc(O)c2c(=O)c(OC)c(-c3ccc(OC)c(OC)c3)oc2c1`, the figures for the ΔTm in assay [3] and in [7] were 3.2 °C and 2.5 °C, respectively. In [4], the Tm worked out at 38.5 °C. Moreover, the deltaH in assay [5] stood at 1.24 kcal/mol. In addition, the deltaS in assay [6] is 0.0167 KJ/(mol.K). The outcome in [8] was Active.

For `COc1cc(OCCCCN2CCN(C)CC2)c2c(=O)c(OC)c(-c3ccc(OC)c(OC)c3)oc2c1`, the ΔTm is 5.6 °C in assay [3] and 12.3 °C in assay [7].

In the case of `CCN(CC)CCCCOc1cc(OC)cc2oc(-c3ccc(OC)c(OC)c3)c(OC)c(=O)c12`, the ΔTm in assay [3] was 11.2 °C; in assay [7], 14.5 °C.
